Laboratory results taken from US12227539B2, “Mogroside compounds and uses thereof” (Firmenich SA, priority 2019, dated 2025).

How the values were obtained:
[1] = Sensory profile scores (Sweet, Licorice, Lingering) compared with mogroside V
[2] = Tasting of a sample of the purified compound (taste perceived, sweetness relative to sucrose); details: for sweetness relative to sucrose: approximate
Source text: The sweetness intensity perceived was weaker than the sweetness intensity perceived with mogroside V. However, the perception of licorice and lingering profile of isomogroside IVe was weaker than that of mogroside V (see table on following page).

[3] = tasted at 250 ppm in a water base
[4] = tasted at a concentration of 250 ppm

Row | Compound | sweetness intensity perceived compared with mogroside V ([1]; 250 ppm in a water base) | Licorice ([1]; Dosage 250 ppm) | Lingering ([1]; Dosage 250 ppm) | Sweet ([1]; Dosage 250 ppm) | sweetness relative to sucrose [2, 3] | taste perceived [2, 4] | sensory profile compared with mogroside V ([1]; 250 ppm in a water base) | sensory profile compared with mogroside V ([1]; 500 ppm in a water base) | Licorice ([1]; Dosage 500 ppm) | Lingering ([1]; Dosage 500 ppm) | Sweet ([1]; Dosage 500 ppm) | sweetness relative to sucrose ([2]; tasted at 500 ppm in a water base) | taste perceived ([2]; tasted at a concentration of 500 ppm in a water base)
1 | C[C@H](CC[C@@H](O[C@@H]1O[C@H](CO[C@@H]2O[C@H](CO)[C@@H](O)[C@H](O)[C@H]2O)[C@@H](O)[C@H](O)[C@H]1O[C@@H]1O[C@H](CO)[C@@H](O[C@@H]2O[C@H](CO)[C@@H](O)[C@H](O)[C@H]2O)[C@H](O)[C@H]1O)C(C)(C)O)[C@H]1CC[C@@]2(C)[C@@H]3CC=C4[C@@H](CC[C@H](O[C@@H]5O[C@H](CO[C@@H]6O[C@H](CO)[C@@H](O)[C@H](O)[C@H]6O)[C@@H](O)[C@H](O)[C@H]5O)C4(C)C)[C@]3(C)[C@H](O)C[C@]12C [Compound 12a, (1S,4R,9beta,11alpha,24R)-1-{[6-O-(beta-D-glucopyranosyl)-beta-D-glucopyranosyl]oxy}-11,25-dihydroxy-9,10,14-trimethyl-4,9-cyclo-9,10-secocholest-5-en-24-yl beta-D-glucopyranosyl-(1→6)-[beta-D-glucopyranosyl-(1→4)-beta-D-glucopyranosyl-(1→2)]-beta-D-glucopyranoside] | weaker | 3.1 | 3.0 | 3.4 | 50-100 times sweeter than sucrose | moderate sweet taste | – | – | – | – | – | – | –
2 | C[C@H](CC[C@@H](O[C@@H]1O[C@H](CO[C@@H]2O[C@H](CO[C@@H]3O[C@H](CO)[C@@H](O)[C@H](O)[C@H]3O)[C@@H](O)[C@H](O)[C@H]2O)[C@@H](O)[C@H](O)[C@H]1O[C@@H]1O[C@H](CO)[C@@H](O)[C@H](O)[C@H]1O)C(C)(C)O)[C@H]1CC[C@@]2(C)[C@@H]3CC=C4[C@@H](CC[C@H](O[C@@H]5O[C@H](CO[C@@H]6O[C@H](CO)[C@@H](O)[C@H](O)[C@H]6O)[C@@H](O)[C@H](O)[C@H]5O)C4(C)C)[C@]3(C)[C@H](O)C[C@]12C [Compound 13a, (1S,4R,9beta,11alpha,24R)-1-{[6-O-(beta-D-glucopyranosyl)-beta-D-glucopyranosyl]oxy}-11,25-dihydroxy-9,10,14-trimethyl-4,9-cyclo-9,10-secocholest-5-en-24-yl beta-D-glucopyranosyl-(1→2)-[beta-D-glucopyranosyl-(1→6)-beta-D-glucopyranosyl-(1→6)]-beta-D-glucopyranoside] | – | 4.4 | 4.2 | 4.6 | 100-150 times sweeter than sucrose | moderate sweet taste | similar | – | – | – | – | – | –
3 | C[C@H](CC[C@@H](O[C@@H]1O[C@H](CO)[C@@H](O)[C@H](O)[C@H]1O[C@@H]1O[C@H](CO)[C@@H](O)[C@H](O)[C@H]1O)C(C)(C)O)[C@H]1CC[C@@]2(C)[C@@H]3CC=C4[C@@H](CC[C@H](O[C@@H]5O[C@H](CO[C@@H]6O[C@H](CO)[C@@H](O)[C@H](O)[C@H]6O)[C@@H](O)[C@H](O)[C@H]5O)C4(C)C)[C@]3(C)CC[C@]12C [Compound 15a, (1S,4S,9beta,24R)-1-{[6-O-(beta-D-glucopyranosyl)-beta-D-glucopyranosyl]oxy}-25-hydroxy-9,10,14-trimethyl-4,9-cyclo-9,10-secocholest-5-en-24-yl 2-O-beta-D-glucopyranosyl-beta-D-glucopyranoside] | – | – | – | – | – | – | – | similar | 6.8 | 6.3 | 7.0 | 150-300 times sweeter than sucrose | strong sweet taste
